Assays:
Assay in all cases: relative viability (nuclei count vs DMSO), 5 days (fraction); higher = more cells survive
CAL-12T = tested on: CAL-12T
Method in brief: (§1)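 Five library-drug doses in √10 steps were combined with a fixed anchor-drug dose, or a single drug was given alone, by pin tool to lung cancer cell lines in 1536-well plates the day after seeding. Nuclei were stained and counted after 5 days. Relative viability is the nuclei count in treated wells over that in vehicle wells, taken as the median of duplicate plates.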

NCI-H1651 = tested on: NCI-H1651
Method in brief: as §1

NCI-H1650 = tested on: NCI-H1650
Method in brief: as §1

HARA = tested on: HARA
Method in brief: as §1

NCI-H441 = tested on: NCI-H441
Method in brief: as §1

NCI-H1755 = tested on: NCI-H1755
Method in brief: as §1

SK-LU-1 = tested on: SK-LU-1
Method in brief: as §1

NCI-H1437 = tested on: NCI-H1437
Method in brief: as §1

HCC-366 = tested on: HCC-366
Method in brief: as §1

NCI-H1734 = tested on: NCI-H1734
Method in brief: as §1

NCI-H2347 = tested on: NCI-H2347
Method in brief: as §1

SMILES: Cc1csc(=NC2CCCCC2)n1/N=C/c1ccc(O)c(O)c1O [MIM1] + CC(=O)Nc1cccc(-n2c(=O)n(C3CC3)c(=O)c3c(Nc4ccc(I)cc4F)n(C)c(=O)c(C)c32)c1 [Trametinib] (partner 0.02 µM)
- relative viability (CAL-12T; first compound 2 µM): 0.341
- relative viability (CAL-12T; first compound 6.325 µM): 0.316
- relative viability (CAL-12T; first compound 20 µM): 0.249
- relative viability (NCI-H1651; first compound 0.2 µM): 0.856
- relative viability (NCI-H1651; first compound 0.6325 µM): 0.9
- relative viability (NCI-H1651; first compound 2 µM): 0.866
- relative viability (NCI-H1651; first compound 6.325 µM): 0.728
- relative viability (NCI-H1651; first compound 20 µM): 0.843
- relative viability (NCI-H1650; first compound 0.2 µM): 0.697
- relative viability (NCI-H1650; first compound 0.6325 µM): 0.619
- relative viability (NCI-H1650; first compound 2 µM): 0.424
- relative viability (NCI-H1650; first compound 6.325 µM): 0.182
- relative viability (NCI-H1650; first compound 20 µM): 0.138
- relative viability (HARA; first compound 0.2 µM): 0.707
- relative viability (HARA; first compound 0.6325 µM): 0.608
- relative viability (HARA; first compound 2 µM): 0.641
- relative viability (HARA; first compound 6.325 µM): 0.216
- relative viability (HARA; first compound 20 µM): 0.173
- relative viability (NCI-H441; first compound 0.2 µM): 0.558
- relative viability (NCI-H441; first compound 0.6325 µM): 0.409
- relative viability (NCI-H441; first compound 2 µM): 0.484
- relative viability (NCI-H441; first compound 6.325 µM): 0.302
- relative viability (NCI-H441; first compound 20 µM): 0.211
- relative viability (NCI-H1755; first compound 0.2 µM): 0.719
- relative viability (NCI-H1755; first compound 0.6325 µM): 0.778
- relative viability (NCI-H1755; first compound 2 µM): 0.808
- relative viability (NCI-H1755; first compound 6.325 µM): 0.7
- relative viability (NCI-H1755; first compound 20 µM): 0.382
- relative viability (SK-LU-1; first compound 0.2 µM): 0.471
- relative viability (SK-LU-1; first compound 0.6325 µM): 0.528
- relative viability (SK-LU-1; first compound 2 µM): 0.516
- relative viability (SK-LU-1; first compound 6.325 µM): 0.459
- relative viability (SK-LU-1; first compound 20 µM): 0.202
- relative viability (NCI-H1437; first compound 0.2 µM): 0.454
- relative viability (NCI-H1437; first compound 0.6325 µM): 0.475
- relative viability (NCI-H1437; first compound 2 µM): 0.456
- relative viability (NCI-H1437; first compound 6.325 µM): 0.239
- relative viability (NCI-H1437; first compound 20 µM): 0.237
- relative viability (HCC-366; first compound 0.2 µM): 0.321
- relative viability (HCC-366; first compound 2 µM): 0.3
- relative viability (HCC-366; first compound 6.325 µM): 0.0405
- relative viability (HCC-366; first compound 20 µM): 0.0273
- relative viability (NCI-H1734; first compound 0.2 µM): 0.786
- relative viability (NCI-H1734; first compound 0.6325 µM): 0.676
- relative viability (NCI-H1734; first compound 2 µM): 0.607
- relative viability (NCI-H1734; first compound 6.325 µM): 0.583
- relative viability (NCI-H1734; first compound 20 µM): 0.183
- relative viability (NCI-H2347; first compound 0.2 µM): 0.309
- relative viability (NCI-H2347; first compound 0.6325 µM): 0.358
- relative viability (NCI-H2347; first compound 2 µM): 0.283
- relative viability (NCI-H2347; first compound 6.325 µM): 0.315
- relative viability (NCI-H2347; first compound 20 µM): 0.27

Source: the supplement of paper PMC10307832
